Measured values as given in the supplement of paper PMC9103864.

Assays:
[1] = tested on: BMSC (primary human bone marrow mesenchymal stromal cells); assay: absolute EC50 for viability; higher = less sensitive
[2] = tested on: BMSC (primary human bone marrow mesenchymal stromal cells); assay: drug sensitivity score (DSS); higher = more sensitive

SMILES | absolute EC50 for viability [1] [µM] | drug sensitivity score [2]
CC(C)(C)c1cc(NC(=O)Nc2ccc(Oc3ccnc4[nH]c(=O)cnc34)cc2F)n(-c2ccccc2)n1 | > 25 | 0
CC(C)Oc1ccc(C(=O)N[C@H](CNC(=O)CN(C)C)Cc2ccc(-c3cn4cccc([C@H](C)O)c4n3)cc2)cc1Cl | 9.93 | 0
CCOc1ccn(-c2ccc(F)cc2)c(=O)c1C(=O)Nc1ccc(Oc2ccnc(N)c2Cl)c(F)c1 | > 2.5 | 0
CC[C@@H]1[C@H](F)C(=O)N[C@@H]1COc1nccc2cc(C(N)=O)c(OC)cc12 | > 10 | 0.3
CCc1cncnc1N1CCN(Cc2nc3ccc(C(F)(F)F)cc3[nH]2)CC1 | > 10 | 1
CCn1c(-c2nonc2N)nc2c(C#CC(C)(C)O)ncc(OC[C@H]3CCCNC3)c21 | > 10 | 6.3
CCn1c(-c2nonc2N)nc2cnc(Oc3cccc(NC(=O)c4ccc(OCCN5CCOCC5)cc4)c3)cc21 | > 10 | 7.3
CCn1c(C(=O)N(C2CC2)C2CC2)cc2c3c(ncn3C)c(Nc3cc(C)n(C)n3)nc21 | > 10 | 1
CCn1cc(-c2ccnc3[nH]c(-c4cccc(CN(C)C)c4)cc23)c(-c2ccc(NC(=O)N(C)C)cc2)n1 | > 1 | 1.5
CN(C)CC#Cc1ccc(OCCCc2sc(N3CCc4cccc(C(=O)Nc5nc6ccccc6s5)c4C3)nc2C(=O)O)c(F)c1 | > 10 | 0
CN(c1ncccc1CNc1nc(Nc2ccc3c(c2)CC(=O)N3)ncc1C(F)(F)F)S(C)(=O)=O | > 10 | 3.2
CN1CCN(C2CCC(n3cc(-c4ccc(Oc5ccccc5)cc4)c4c(N)ncnc43)CC2)CC1 (centres undefined) | 1 | 11.1
CNC(=O)c1ccc(C)c(-n2c(C)cc(OCc3ccc(F)cc3F)c(Br)c2=O)c1 | > 1 | 0
CNC(=O)c1ccccc1Nc1nc(Nc2ccc3c(c2OC)CCC[C@H](N2CCN(CCO)CC2)C3)ncc1Cl | 1.17 | 6.6
CNS(=O)(=O)Nc1nccc(Cc2c(C)c3ccc(Oc4ncccn4)cc3oc2=O)c1F | > 1 | 0
CNc1nc(-c2ccc3c(N)n[nH]c3c2)cc(N2C[C@@H](C(=O)NC3CCCCC3)CC[C@H]2C)n1 | > 10 | 5.4
CNc1ncc2cc(-c3cc(NC(=O)NCCC(C)(C)C)c(F)cc3C)c(C)nc2n1 | > 10 | 6.2
CONC(=O)c1ccccc1Nc1cc(Nc2cc(C)nn2C(C)C)ncc1Cl | > 1 | 0.1
CO[C@@H](C)Cn1c(=O)n(C)c2cnc3ccc(-c4cncc(C(C)(C)O)c4)cc3c21 | 0.257 | 10.5
COc1cc2ncnc(Oc3cccc(NC(=O)Nc4cc(C(C)(C)C(F)(F)F)on4)c3)c2cc1OC | > 10 | 4.6
COc1ccc(Cn2ccc3ccc(C(=O)NO)cc32)cc1 | 9.93 | 0
COc1ccc2[nH]cc(/C=C3\C(=O)Nc4ccc(NC(=O)CCN5CCCCC5)cc43)c2c1 | 7.38 | 9.6
C[C@@H](Oc1ccc2[nH]nc(/C=C/c3cnn(CCO)c3)c2c1)c1c(Cl)cncc1Cl | > 1 | 3.6
C[C@@H]1CN(CC(=O)Nc2ccc3c(c2)Cc2cccc(-c4cc(=O)cc(N5CCOCC5)o4)c2S3)C[C@H](C)O1 | > 25 | 0.6

SMILES | absolute EC50 for viability [1] [µM] | drug sensitivity score [2]
C[C@@]1(C(=O)Nc2ccc(F)nc2)CCCN1c1nc(Nc2cc(C3CC3)n[nH]2)c2cccn2n1 | 7.74 | 9.3
C[C@H]1C[C@@H](n2c(Nc3ccc(OC(F)(F)F)cc3)nc3cc(CCC(=O)O)ccc32)CC(C)(C)C1 | > 10 | 0
C[C@H]1Oc2cc(cnc2N)-c2c(nn(C)c2C#N)CN(C)C(=O)c2ccc(F)cc21 | > 1 | 0.2
Cc1c(-c2c(-c3ccc(F)o3)sc3ncnc(O[C@H](Cc4ccccc4OCc4ccnn4CC(F)(F)F)C(=O)O)c23)ccc(OCCN2CCN(C)CC2)c1Cl | > 1 | 0
Cc1c(-c2ccc(N3CCc4cccc(C(=O)Nc5nc6ccccc6s5)c4C3)nc2C(=O)O)cnn1CC12CC3CC(CC(C3)C1)C2 | > 1 | 0
Cc1c(Cn2c(C)nc3c(C(=O)O)cc(N4CCOCC4)cc32)cccc1C(F)(F)F | > 10 | 0
Cc1ccc(C(=O)N(CCCN)[C@@H](c2oc3cc(Cl)ccc3c(=O)c2Cc2ccccc2)C(C)C)cc1 | > 0.1 | 0
Cc1cccc(CC(=O)N2CCc3c2ccc(-c2cn(C)c4ncnc(N)c24)c3F)n1 | > 2.5 | 0
Cc1ncc(Cl)cc1NCc1ccc(C(=O)N[C@@H](CC2CCCC2)C(=O)NC2CC2)s1 | > 5 | 0
Cn1cc(-c2ccc(F)c(C(F)(F)F)c2)nc1C1CCN(c2ncnc3[nH]ncc23)CC1 | > 10 | 0
Cn1cc(C2=Nc3cc(NC(=O)C(N)C4CCCCC4)cc4c3C2=CNNC4=O)cn1 (centres undefined) | 1.43 | 9.2
N#Cc1ccc(COC[C@H]2O[C@@H](n3c(NCc4ccc(Cl)c(Cl)c4)nc4c(N)ncnc43)[C@H](O)[C@@H]2O)cc1 | > 10 | 2.2
NCC(=O)Nc1ccc(-n2nc(C(F)(F)F)cc2-c2ccc3c(ccc4ccccc43)c2)cc1 | > 25 | 0.5
NC[C@@](O)(c1ccc(Cl)cc1)c1ccc(-c2cn[nH]c2)cc1 | > 10 | 3.3
Nc1nccc(-c2c(-c3ccc(F)cc3)ncn2C2CCCCC2)n1 | > 10 | 0.3
Nc1ncnc2c1c(COc1cccc(Cl)c1)nn2C1CCOCC1 | > 10 | 0
O=C(NC[C@H](O)CN1CCc2ccccc2C1)c1cc(NC2COC2)ncn1 | > 10 | 0
O=C(NCc1ccncc1)C12CC3CC(C1)CC(c1ccc(Cl)cc1)(C3)C2 | > 50 | 3.3
O=C(Nc1ccc2[nH]nc(-c3ccncc3)c2c1)[C@@H]1CCN(CC(=O)N2CCN(c3ccc(-c4ncccn4)cc3)CC2)C1 | > 10 | 4
O=C(O)c1ccc(-c2c[nH]c3ncc(-c4ccccc4)cc23)cc1C1CCCC1 | > 10 | 0.7
O=C(O)c1ccc(CN2CCC(CN[C@@H]3C[C@H]3c3ccccc3)CC2)cc1 | > 100 | 0
O=C1Cc2cc(C(=O)NC3C[C@H]4CC[C@@H](C3)N4S(=O)(=O)CC3CCN(CCCC(F)(F)F)CC3)c(Cl)cc2N1 (some centres undefined) | > 10 | 0
O=c1[nH]c(C2CCCN2)nc2c1oc1ccc(Cl)cc12 (centres undefined) | > 10 | 0.6
